Data on two compounds can be found in PMC4109680, “Identification and Preclinical Pharmacology of the γ-Secretase Modulator BMS-869780” (International Journal of Alzheimer's Disease, 2014).

One assay deals with Aβ1-40 (H4-APPsw). The experiment in a line: Aβ1-40 time-resolved fluorescence immunoassay in H4-APPsw cell cultures. It is filed as cell-based, human. Particulars: for IC50: Homo sapiens, H4-APPsw cultures treated overnight. The procedure:
(§1) H4-APPsw cell cultures were maintained on Dulbecco's modified Eagle's medium (DMEM) supplemented with L-glutamine (2 mM), fetal bovine serum (10%), and G418 (100 μg/mL). […] Aβ1-42 and Aβ1-40 assays, and Notch inhibition assays, were carried out as described previously. Mouse embryonic fibroblasts deficient in PS1 and PS2 (MEF dKO) were passaged twice per week in DMEM/F-12 medium, consisting of a 1 : 1 mixture of DMEM and F-12 nutrient mixture supplemented with 10% fetal bovine serum, penicillin, and streptomycin. For expression of human presenilin-1 in MEF dKO cells, the full length human presenilin-1 cDNA open reading frame was cloned between the BamHI and XhoI sites of the vector pcDNA5/FRT (Invitrogen), placing presenilin-1 expression under the control of the CMV promoter. The M146V mutated allele was introduced into the presenilin-1 expression construct by polymerase chain reaction using the oligonucleotide primers 5′-[…]-3′ and 5′-[…]-3 (QuikChange kit, Invitrogen). MEF dKO cultures were cotransfected with DNA constructs expressing APP-CTF, encoding the C-terminal 99 amino acids of APP [61] and either the human presenilin-1 or presenilin-1 M146V allele. Transfected cultures were incubated overnight at 37°C in 5% CO2 atmosphere and then harvested, resuspended in DMEM/F-12 medium, dispensed into 96-well culture plates, and incubated for 6 hours at 37°C in 5% CO2 atmosphere. Culture medium was then replaced with Ultraculture serum free medium (Lonza, Rockland, ME) with or without compounds at a range of concentrations and incubated overnight.
(§2) IC50 determinations for Aβ1-42 and Aβ1-40 in H4-APPsw cultures in 384-well format were determined using homogeneous time-resolved fluorescence immunoassays as previously described. The principle of these assays is illustrated in Figures 1(c) and 1(d). In other experiments using H4-APPsw cultures, Aβ was quantified by ELISA; for Aβ1-42 the combination of monoclonal antibodies was 26D6 and 565-HRP; for Aβ1-40 it was TSD and 26D6-HRP, and for Aβ1-x it was 4G8 and 26D6-HRP. In some experiments a novel 4-plex Aβ electrochemiluminescence immunoassay was used (Mesoscale Discovery catalog number N45ZA-1). Briefly, the 4-plex was carried out in 96-well format, with 4 separate spots of capture antibodies in each well. […] For Aβ in transiently transfected PS1/PS2 dKO fibroblasts, Aβ1-42 was quantified using an ELISA kit (WACO), and Aβ1-40 was quantified by ELISA as described above for H4-APPsw cultures. […] For the rat and mouse experiments illustrated in Figures 7 and 8, brain samples were prepared by solid phase extraction, and endogenous rat brain Aβ1-42 and Aβ1-40 were quantified by ELISA as previously described for wild type mice. […]

The subject of a further assay is Aβ1-42 (H4-APPsw). The experiment in a line: Aβ1-42 time-resolved fluorescence immunoassay in H4-APPsw cell cultures. It is filed as cell-based, human. Particulars: H4-APPsw cultures treated overnight. The procedure:
as §1, §2

As for `C[C@H](c1ccc(F)cc1CCCC(=O)O)N(c1cc(F)ccc1F)S(=O)(=O)c1ccc(Cl)cc1` [BMS-299897, reference compound], the values for the IC50 in the assay on Aβ1-40 (H4-APPsw) and in the assay on Aβ1-42 (H4-APPsw) (Homo sapiens) were 1.3 nM and 0.47 nM, respectively.
With `COc1cc(Nc2nc3n(n2)CCCC[C@H]3c2ccc(F)cc2)ccc1-n1cnc(Cl)c1` [BMS-869780], the “shift in IC50 values between Aβ1-42 and Aβ1-40” value in the assay on Aβ1-40 (H4-APPsw) (H4-APPsw) amounted to 4 fold. For the same compound, the IC50 was found to be 24.1 nM in the assay on Aβ1-40 (H4-APPsw), 5.1 nM in the assay with Aβ1-42 (H4-APPsw) and 5.6 nM with Aβ1-42 (H4-APPsw) (Homo sapiens).

As a reminder, the IC50 is the concentration needed to halve the response being measured.
